Data taken from article PMC7071076, “Antibacterial Activity and Pharmacokinetic Profile of a Promising Antibacterial Agent: 22-(2-Amino-phenylsulfanyl)-22-Deoxypleuromutilin” (Molecules, 2020).
Where two headings read alike, the source gives them in different places.

How the values were obtained:
[1] = tested on: MCP-1; assay: MRSA wound infection model: serum cytokine ELISA; format: in vivo, mice; conditions: three days after treatment (method: 24 h), p < 0.05
Experimental: Six weeks SPF-ICR female mice were used for this study. The Experimental model, inducted of inflammatory in mice by skin excision, was established referring to existing methods with some alterations. The mice were anesthetized with the intravenous injection of 1% sodium pentobarbital. After their hair on the back was shaved, the mice were anesthetized and the back skin was perforated with a biopsy perforator at a depth of fascia injury. The inoculum (50 μL), containing 10^9 CFU/mL of the indicated microorganism (MRSA ATCC 43300), was applied on the wound for three times at 30 min intervals. 100 μL drug (3 mg/mL) was administrated on the wound at 1 h after inoculation for three consecutive days. A total of 100 μL blank matrix was given to the infected control group and the non-infected group in the same way. The wound was wrapped with sterile gauze. During the treatment, all mice were kept individually and free to eat and drink.
After administration for 24 h, blood samples were collected from the ocular venous plexus and were prepared to serum samples as previously described. The contents of IL-6, TNF-α, and MCP-1 in serum were detected using ELISA kits according to the instruction. All ELISA kits were purchased from Shanghai Enzyme-linked Biotechnology Co., Ltd. (Shanghai, China).

[2] = Pharmacokinetic study in mice; format: in vivo; conditions: female, ICR, mouse, plasma, 10 mg/kg
Experimental: Pharmacokinetic parameters of amphenmulin were measured according to previous reports with some modifications. Each group consisted of eight female SPF-ICR mice. Amphenmulin (1 mg/mL) was administered intravenously, intraperitoneally, and orally at a dose of 10 mg/kg, respectively. Formulation of amphenmulin was a filtered solution in 5% DMSO, 5% Tween-80, and 90% normal saline. Serial samples (each 0.2 mL) were collected from the ocular venous plexus and placed in a plastic centrifuge tube. The blood samples were placed at room temperature for 20 min and transferred to a 4 °C refrigerator for 12 h to promote blood coagulation. Then samples were centrifuged at 2000 r/min for 10 min to get serum. Serum samples were frozen at −20°C. 100 µL of samples was accurately absorbed and mixed with 100 µL of acetonitrile in a 1.5 mL centrifuge tube. The sample was mixed vigorously and centrifuged at 12,000 rpm for 10 min. The supernatant was transferred, filtered through a 0.22 μm cellulose membrane filter and used for LC-MS/MS analysis. Equipment and analysis conditions were shown in supplemental data. The pharmacokinetic parameters of amphenmulin were determined from the mean plasma concentration with noncompartmental analysis in WinNonlin 5.2 software (Pharsight, Mountain View, CA, USA). Data were shown as mean ± standard deviation (SD).

[3] = intraperitoneal, mice, intraperitoneal 10 mg/kg, n = 8, read-out: plasma concentration, mean ± S.D
[4] = iv, intravenous 10 mg/kg, mice 1-8 in order, read-out: plasma concentration, individual mice
[5] = iv, mice, intravenous 10 mg/kg, n = 8, read-out: plasma concentration, mean ± S.D
[6] = po, mice, oral 10 mg/kg, n = 8, read-out: plasma concentration, mean ± S.D

SMILES: C=C[C@]1(C)C[C@@H](OC(=O)CSc2ccccc2N)[C@]2(C)[C@H](C)CC[C@]3(CCC(=O)[C@H]32)[C@@H](C)[C@@H]1O [Amphenmulin, 22-(2-amino-phenylsulfanyl)-22-deoxypleuromutilin]
- MCP-1 in the serum vs infection group [1]: significantly decreased
- concentration at 0.083 h [2, 3]: 850 ± 320 ng/mL
- concentration at 0.25 h [2, 3]: 1220 ± 460 ng/mL
- concentration at 0.5 h [2, 3]: 980 ± 420 ng/mL
- concentration at 0.75 h [2, 3]: 740 ± 330 ng/mL
- concentration at 1 h [2, 3]: 580 ± 240 ng/mL
- concentration at 2 h [2, 3]: 340 ± 160 ng/mL
- concentration at 4 h [2, 3]: 190 ± 120 ng/mL
- concentration at 6 h [2, 3]: 120 ± 90 ng/mL
- concentration at 8 h [2, 3]: 70 ± 40 ng/mL
- concentration at 12 h [2, 3]: 30 ± 10 ng/mL
- AUC(0-inf) ([2]; ip, mice, intraperitoneal): 2520 ± 810 ng·h/mL
- Cmax ([2]; ip, mice, intraperitoneal): 1340 ± 420 ng/mL
- MRT ([2]; ip, mice, intraperitoneal): 3.28 ± 0.42 h
- Tmax ([2]; ip, mice, intraperitoneal): 0.32 ± 0.21 h
- bioavailability ([2]; ip, mice, intraperitoneal): 20.7%
- half-life ([2]; ip, mice, intraperitoneal): 2.64 ± 0.72 h
- Vd/F ([2]; ip, mice, intraperitoneal, read-out: Vz/F): 15.9 ± 7.41 L/kg
- concentration at 0.083 h [2, 4]: 3060 ng/mL
- concentration at 0.25 h [2, 4]: 2850 ng/mL
- concentration at 0.5 h [2, 4]: 2650 ng/mL
- concentration at 0.75 h [2, 4]: 2350 ng/mL
- concentration at 4 h [2, 4]: 850 ng/mL
- concentration at 6 h [2, 4]: 460 ng/mL
- concentration at 0.083 h [2, 5]: 3940 ± 730 ng/mL
- concentration at 0.25 h [2, 5]: 3770 ± 640 ng/mL
- concentration at 0.5 h [2, 5]: 3530 ± 530 ng/mL
- concentration at 0.75 h [2, 5]: 3310 ± 740 ng/mL
- concentration at 1 h [2, 5]: 3190 ± 700 ng/mL
- concentration at 2 h [2, 5]: 2300 ± 650 ng/mL
- concentration at 4 h [2, 5]: 1010 ± 160 ng/mL
- concentration at 6 h [2, 5]: 420 ± 90 ng/mL
- concentration at 8 h [2, 5]: 210 ± 80 ng/mL
- concentration at 12 h [2, 5]: 50 ± 10 ng/mL
- concentration at 0.25 h [2, 6]: 90 ± 50 ng/mL
- concentration at 0.5 h [2, 6]: 310 ± 110 ng/mL
- concentration at 1 h [2, 6]: 490 ± 160 ng/mL
- concentration at 2 h [2, 6]: 360 ± 210 ng/mL
- concentration at 3 h ([2]; po, mice, oral 10 mg/kg, 3 h, n = 8, read-out: plasma concentration, mean ± S.D): 220 ± 150 ng/mL
- concentration at 4 h [2, 6]: 150 ± 80 ng/mL
- concentration at 6 h [2, 6]: 80 ± 30 ng/mL
- concentration at 8 h [2, 6]: 50 ± 20 ng/mL
- concentration at 12 h [2, 6]: 20 ± 10 ng/mL
- AUC(0-inf) ([2]; mice, intravenous): 12200 ± 1350 ng·h/mL
- MRT ([2]; mice, intravenous): 2.57 ± 0.19 h
- half-life ([2]; mice, intravenous): 1.92 ± 0.28 h
- Vd ([2]; mice, intravenous, read-out: Vz): 2.17 ± 0.42 L/kg
- AUC(0-inf) ([2]; mice, oral): 1670 ± 660 ng·h/mL
- Cmax ([2]; mice, oral): 530 ± 180 ng/mL
- MRT ([2]; mice, oral): 4.01 ± 0.62 h
